One may read the pIC50 as the IC50 on a negative log10 scale, so that one unit is a factor of ten.

Molecules are shown by their SMILES. pIC50: −log10 of the molar value.

Among the data in patent US20120114588A1, “IBAT INHIBITORS FOR TREATMENT OF METABOLIC DISORDERS AND RELATED CONDITIONS” (ALBIREO AB, priority 2010, published 2012) are IC50 values, retold here.

In this experiment the target is T1, Ileal Bile Acid Transporter Human (Homo sapiens, UniProt Q12908).
T1 construct: expressed in transfected cells; host or cells: HEK
T1 sequence (Q12908 1-348): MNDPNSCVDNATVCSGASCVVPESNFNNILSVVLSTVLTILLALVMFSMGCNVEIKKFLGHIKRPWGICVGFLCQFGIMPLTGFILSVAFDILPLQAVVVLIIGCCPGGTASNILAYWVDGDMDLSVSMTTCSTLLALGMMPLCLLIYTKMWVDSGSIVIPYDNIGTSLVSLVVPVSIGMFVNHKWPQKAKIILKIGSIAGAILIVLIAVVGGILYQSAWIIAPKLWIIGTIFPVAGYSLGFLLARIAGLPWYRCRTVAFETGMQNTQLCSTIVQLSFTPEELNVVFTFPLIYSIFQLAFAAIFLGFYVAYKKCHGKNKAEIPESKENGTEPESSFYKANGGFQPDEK
The experiment can be described thus: ISBT Hu HEK Uptake SPA: Human HEK Glycocholic acid Uptake Radiometric SPA. In kind it is cell-based. The settings on record: human IBAT in HEK cells. As to the method: ISBT Hu HEK Uptake SPA 13203 IBAT HUM Ileal Bile Acid Transporter Human HEK Glycocholic acid Uptake Radiometric—SPA Inhibitor IC50 Mean IC50 (nM) was determined for the compounds of examples 1-14
For `CCCCC1(CCCC)CN(c2ccccc2)c2cc(SC)c(OCC(=O)N[C@@H](C(=O)N[C@@H](CC)C(=O)O)c3ccccc3)cc2S(=O)(=O)N1` [Example 3, 1,1-Dioxo-3,3-dibutyl-5-phenyl-7-methylthio-8-(N-{(R)-α-[N-((S)-1-carboxypropyl)carbamoyl]benzyl}carbamoylmethoxy)-2,3,4,5-tetrahydro-1,2,5-benzothiadiazepine], the pIC50 is 9.74.
In the case of `CCCCC1(CCCC)CN(c2ccccc2)c2cc(SC)c(OCC(=O)N[C@@H](C(=O)N[C@@H](C)C(=O)O)c3ccc(O)cc3)cc2S(=O)(=O)N1` [Example 12] it was 9.52; in that of `CCCCC1(CCCC)CN(c2ccccc2)c2cc(SC)c(OCC(=O)N[C@@H](C(=O)NCC(=O)O)c3ccccc3)cc2S(=O)(=O)N1` [Example 1, 1,1-Dioxo-3,3-dibutyl-5-phenyl-7-methylthio-8-(N-{(R)-α-[N-(carboxymethyl)carbamoyl]benzyl}carbamovlmethoxv)-2,3,4,5-tetrahvdro-1. 2. 5-benzothiadiazepine], 9.35; in that of `CCCCC1(CCCC)CN(c2ccccc2)c2cc(SC)c(OCC(=O)N[C@@H](C(=O)N[C@@H](CC)C(=O)O)c3ccc(O)cc3)cc2S(=O)(=O)N1` [Example 5, 1,1-Dioxo-3,3-dibutyl-5-phenyl-7-methylthio-8-(N-{(R)-α-[N-((S)-1-carboxypropyl)carbamoyl]-4-hydroxybenzyl}carbamoylmethoxy)-2,3,4,5-tetrahydro-1,2,5-benzothiadiazepine], 9.80.
In turn, `CCCCC1(CCCC)CN(c2ccccc2)c2cc(SC)c(OCC(=O)N[C@@H](C(=O)N[C@@H](C)C(=O)O)c3ccccc3)cc2S(=O)(=O)N1` [Example 10, 1,1-Dioxo-3,3-dibutyl-5-phenyl-7-methylthio-8-(N-{(R)-α-[N-((S)-1-carboxyethyl)carbamoyl]benzyl}carbamoylmethoxy)-2,3,4,5-tetrahydro-1,2,5-benzothiadiazepine] gave a pIC50 of 9.70.
The figure for `CCCCC1(CCCC)CN(c2ccccc2)c2cc(SC)c(OCC(=O)N[C@@H](C(=O)N[C@H](C(=O)O)[C@@H](C)O)c3ccc(O)cc3)cc2S(=O)(=O)N1` [Example 8, 1,1-Dioxo-3,3-dibutyl-5-phenyl-7-methylthio-8-(N-{(R)-α-[N-((S)-1-carboxy-2-(R)-hydroxypropyl)carbamoyl]-4-hydroxybenzyl}carbamoylmethoxy)-2,3,4,5-tetrahydro-1,2,5-benzothiadiazepine] is 9.96.
For `CCCCC1(CCCC)CN(c2ccccc2)c2cc(SC)c(OCC(=O)N[C@@H](C(=O)N[C@@H](CSC)C(=O)O)c3ccccc3)cc2S(=O)(=O)N1` [Example 4, 1,1-Dioxo-3,3-dibutyl-5-phenyl-7-methylthio-8-(N-{(R)-α-[N-((R)-1-carboxy-2-methylthioethyl)carbamoyl]benzyl}carbamoylmethoxy)-2,3,4,5-tetrahydro-1,2,5-benzothiadiazepine], the pIC50 was 9.46.
The compound `CCCCC1(CCCC)CN(c2ccccc2)c2cc(SC)c(OCC(=O)N[C@@H](C(=O)N[C@@H](C)C(=O)O)c3ccccc3)cc2S(=O)(=O)C1` [Example 2, 1,1-Dioxo-3,3-dibutyl-5-phenyl-7-methylthio-8-(N-{(R)-α-[N′-((S)-1-carboxyethyl)carbamoyl]benzyl}carbamoylmethoxy)-2,3,4,5-tetrahydro-1,5-benzothiazepine] had a pIC50 of 9.41.
In the case of `CCCCC1(CCCC)CN(c2ccccc2)c2cc(SC)c(OCC(=O)N[C@@H](C(=O)N[C@H](C(=O)O)C(C)C)c3ccccc3)cc2S(=O)(=O)N1` [Example 7, 1,1-Dioxo-3,3-dibutyl-5-phenyl-7-methylthio-8-(N-{(R)-α-[N-((S)-1-carboxy-2-methylpropyl)carbamoyl]benzyl}carbamoylmethoxy)-2,3,4,5-tetrahydro-1,2,5-benzothiadiazepine] it was 9.44.
